Results reported in ChEMBL document CHEMBL5247586, “Discovery of fusidic acid derivatives as novel STING inhibitors for treatment of sepsis” (Eur J Med Chem, 2022).

Tests used:
[1] = Cytotoxicity against mouse RAW264.7 cells assessed as cell viability at 40 uM measured after 24 hrs by MTT assay relative to control; format: toxicity, cell-based; conditions: read-out: Activity
RAW264.7 [2] = assay: Anti inflammatory activity in LPS-induced mouse RAW264.7 cells assessed as inhibition of NO production at 2.5 uM preincubated with compound for 2 hrs followed by LPS stimulation and measured after 24 hrs by griess reagent based assay relative to control; format: functional; conditions: time 26 hrs
RAW264.7 [3] = assay: Anti inflammatory activity in LPS-induced mouse RAW264.7 cells assessed as inhibition of NO production at 5 uM preincubated with compound for 2 hrs followed by LPS stimulation and measured after 24 hrs by griess reagent based assay relative to control; format: functional; conditions: time 26 hrs
RAW264.7 [4] = assay: Anti inflammatory activity in LPS-induced mouse RAW264.7 cells assessed as inhibition of NO production preincubated with compound for 2 hrs followed by LPS stimulation and measured after 24 hrs by griess reagent based assay; format: functional, cell-based

Row | Structure (SMILES) | viability at 24 h, 40 µM [1] [%] | inhibition at 2.5 µM (RAW264.7 [2]) [%] | inhibition at 5 µM (RAW264.7 [3]) [%] | IC50 (RAW264.7 [4]) [µM]
1 | CC(=O)O[C@H]1C[C@@]2(C)[C@@H](C[C@@H](O)[C@H]3[C@@]4(C)CC[C@@H](OC(=O)CCSSCCC(=O)NOC(C)(C)C)[C@@H](C)[C@@H]4CC[C@@]32C)/C1=C(\CCC=C(C)C)C(=O)OCc1ccccc1 | 76 | – | – | –
2 | CC(=O)O[C@H]1C[C@@]2(C)[C@@H](C[C@@H](O)[C@H]3[C@@]4(C)CC[C@@H](OC(=O)c5ccccc5C(=O)n5cccn5)[C@@H](C)[C@@H]4CC[C@@]32C)/C1=C(\CCC=C(C)C)C(=O)OCc1ccccc1 | 76.6 | – | – | –
3 | C=CCONC(=O)/C(CCC=C(C)C)=C1\[C@@H](OC(C)=O)C[C@@]2(C)[C@H]1C[C@@H](O)[C@H]1[C@@]3(C)CC[C@@H](O)[C@@H](C)[C@@H]3CC[C@@]12C | 90.8 | 17.7 | 21.3 | –
4 | CC(=O)O[C@H]1C[C@@]2(C)[C@@H](C[C@@H](O)[C@H]3[C@@]4(C)CC[C@@H](OC(=O)c5ccccc5C(=O)NOc5ccc([N+](=O)[O-])cc5)[C@@H](C)[C@@H]4CC[C@@]32C)/C1=C(\CCC=C(C)C)C(=O)OCc1ccccc1 | 1.66 | – | – | –
5 | CC(=O)O[C@H]1C[C@@]2(C)[C@@H](C[C@@H](O)[C@H]3[C@@]4(C)CC[C@@H](OC(=O)CCSSCCC(=O)NOCc5ccccc5)[C@@H](C)[C@@H]4CC[C@@]32C)/C1=C(\CCC=C(C)C)C(=O)OCc1ccccc1 | 98.4 | 8.17 | 12.5 | –
6 | CC(=O)O[C@H]1C[C@@]2(C)[C@@H](C[C@@H](O)[C@H]3[C@@]4(C)CC[C@@H](O)[C@@H](C)[C@@H]4CC[C@@]32C)/C1=C(\CCC=C(C)C)C(=O)NOc1ccc([N+](=O)[O-])cc1 | 56.5 | – | – | –
7 | CC(=O)O[C@H]1C[C@@]2(C)[C@@H](C[C@@H](O)[C@H]3[C@@]4(C)CC[C@@H](OC(=O)c5ccccc5C(=O)NOCc5ccccc5)[C@@H](C)[C@@H]4CC[C@@]32C)/C1=C(\CCC=C(C)C)C(=O)OCc1ccccc1 | 96 | 8.93 | 11 | –
8 | CC(=O)O[C@H]1C[C@@]2(C)[C@@H](C[C@@H](O)[C@H]3[C@@]4(C)CC[C@@H](OC(=O)c5ccccc5C(=O)NOC(C)(C)C)[C@@H](C)[C@@H]4CC[C@@]32C)/C1=C(\CCC=C(C)C)C(=O)OCc1ccccc1 | 98.3 | 13.5 | 25.9 | –
9 | CON(C)C(=O)CCSSCCC(=O)O[C@@H]1CC[C@@]2(C)[C@@H](CC[C@@]3(C)[C@H]2[C@H](O)C[C@H]2/C(=C(\CCC=C(C)C)C(=O)OCc4ccccc4)[C@@H](OC(C)=O)C[C@@]23C)[C@@H]1C | 90.2 | 54.6 | 59.3 | 2.5
10 | O=C(Nc1ccc(I)cc1)c1ccc([N+](=O)[O-])o1 | – | – | – | 1.14
11 | CC(=O)O[C@H]1C[C@@]2(C)[C@@H](C[C@@H](O)[C@H]3[C@@]4(C)CC[C@@H](OC(=O)c5ccccc5C(=O)NOC5CCCCO5)[C@@H](C)[C@@H]4CC[C@@]32C)/C1=C(\CCC=C(C)C)C(=O)OCc1ccccc1 (some centres undefined) | 94.1 | 7.93 | 19.4 | –
12 | CC(=O)O[C@H]1C[C@@]2(C)[C@@H](C[C@@H](O)[C@H]3[C@@]4(C)CC[C@@H](O)[C@@H](C)[C@@H]4CC[C@@]32C)/C1=C(\CCC=C(C)C)C(=O)NOCc1ccccc1 | 0.07 | – | – | –
13 | CC(=O)O[C@H]1C[C@@]2(C)[C@@H](C[C@@H](O)[C@H]3[C@@]4(C)CC[C@@H](OC(=O)CCSSCCC(=O)NOc5ccc([N+](=O)[O-])cc5)[C@@H](C)[C@@H]4CC[C@@]32C)/C1=C(\CCC=C(C)C)C(=O)OCc1ccccc1 | 103 | 14.9 | 28.4 | –
14 | CON(C)C(=O)c1ccccc1C(=O)O[C@@H]1CC[C@@]2(C)[C@@H](CC[C@@]3(C)[C@H]2[C@H](O)C[C@H]2/C(=C(\CCC=C(C)C)C(=O)OCc4ccccc4)[C@@H](OC(C)=O)C[C@@]23C)[C@@H]1C | 100 | 24 | 44.5 | 6.92
15 | CC(=O)O[C@H]1C[C@@]2(C)[C@@H](C[C@@H](O)[C@H]3[C@@]4(C)CC[C@@H](OC(=O)CCSSCCC(=O)NOC5CCCCO5)[C@@H](C)[C@@H]4CC[C@@]32C)/C1=C(\CCC=C(C)C)C(=O)OCc1ccccc1 (some centres undefined) | 90.2 | 55.2 | 65.2 | 2.62
16 | CONC(=O)/C(CCC=C(C)C)=C1\[C@@H](OC(C)=O)C[C@@]2(C)[C@H]1C[C@@H](O)[C@H]1[C@@]3(C)CC[C@@H](O)[C@@H](C)[C@@H]3CC[C@@]12C | 91.4 | 16.5 | 18.3 | –
17 | CC(=O)O[C@H]1C[C@@]2(C)[C@@H](C[C@@H](O)[C@H]3[C@@]4(C)CC[C@@H](OC(=O)c5ccccc5C(=O)N5CCOCC5)[C@@H](C)[C@@H]4CC[C@@]32C)/C1=C(\CCC=C(C)C)C(=O)OCc1ccccc1 | 102 | 28.4 | 44.5 | 7.61

Row | Structure (SMILES) | viability at 24 h, 40 µM [1] [%] | inhibition at 2.5 µM (RAW264.7 [2]) [%] | inhibition at 5 µM (RAW264.7 [3]) [%] | IC50 (RAW264.7 [4]) [µM]
18 | CONC(=O)CCSSCCC(=O)O[C@@H]1CC[C@@]2(C)[C@@H](CC[C@@]3(C)[C@H]2[C@H](O)C[C@H]2/C(=C(\CCC=C(C)C)C(=O)OCc4ccccc4)[C@@H](OC(C)=O)C[C@@]23C)[C@@H]1C | 2.32 | – | – | –
19 | CON(C)C(=O)/C(CCC=C(C)C)=C1\[C@@H](OC(C)=O)C[C@@]2(C)[C@H]1C[C@@H](O)[C@H]1[C@@]3(C)CC[C@@H](O)[C@@H](C)[C@@H]3CC[C@@]12C | 55.5 | – | – | –
20 | CC(=O)O[C@H]1C[C@@]2(C)[C@@H](C[C@@H](O)[C@H]3[C@@]4(C)CC[C@@H](OC(=O)c5ccccc5C(=O)N5CCCCC5)[C@@H](C)[C@@H]4CC[C@@]32C)/C1=C(\CCC=C(C)C)C(=O)OCc1ccccc1 | 103 | 16.9 | 30.8 | 11.6
21 | CC(=O)O[C@H]1C[C@@]2(C)[C@@H](C[C@@H](O)[C@H]3[C@@]4(C)CC[C@@H](OC(=O)CCSSCCC(=O)N(O)C5CCCCC5)[C@@H](C)[C@@H]4CC[C@@]32C)/C1=C(\CCC=C(C)C)C(=O)OCc1ccccc1 | 80.1 | – | – | –
22 | CC(=O)O[C@H]1C[C@@]2(C)[C@@H](C[C@@H](O)[C@H]3[C@@]4(C)CC[C@@H](OC(=O)CCSSCCC(=O)NOC(=O)c5ccc([N+](=O)[O-])cc5)[C@@H](C)[C@@H]4CC[C@@]32C)/C1=C(\CCC=C(C)C)C(=O)OCc1ccccc1 | 91 | 33.3 | 44.8 | 10
23 | CC(=O)O[C@H]1C[C@@]2(C)[C@@H](C[C@@H](O)[C@H]3[C@@]4(C)CC[C@@H](OC(=O)CCSSCCC(=O)N(C)O)[C@@H](C)[C@@H]4CC[C@@]32C)/C1=C(\CCC=C(C)C)C(=O)OCc1ccccc1 | 48.8 | – | – | –
24 | CC(=O)O[C@H]1C[C@@]2(C)[C@@H](C[C@@H](O)[C@H]3[C@@]4(C)CC[C@@H](OC(=O)c5ccccc5C(=O)N5CCN(C)CC5)[C@@H](C)[C@@H]4CC[C@@]32C)/C1=C(\CCC=C(C)C)C(=O)OCc1ccccc1 | 108 | 8.43 | 14.7 | –
25 | C=CCONC(=O)c1ccccc1C(=O)O[C@@H]1CC[C@@]2(C)[C@@H](CC[C@@]3(C)[C@H]2[C@H](O)C[C@H]2/C(=C(\CCC=C(C)C)C(=O)OCc4ccccc4)[C@@H](OC(C)=O)C[C@@]23C)[C@@H]1C | 101 | 24.7 | 39.3 | 8.92
26 | CCN1CCN(C(=O)c2ccccc2C(=O)O[C@@H]2CC[C@@]3(C)[C@@H](CC[C@@]4(C)[C@H]3[C@H](O)C[C@H]3/C(=C(\CCC=C(C)C)C(=O)OCc5ccccc5)[C@@H](OC(C)=O)C[C@@]34C)[C@@H]2C)CC1 | 5.62 | – | – | –
27 | CC(=O)O[C@H]1C[C@@]2(C)[C@@H](C[C@@H](O)[C@H]3[C@@]4(C)CC[C@@H](O)[C@@H](C)[C@@H]4CC[C@@]32C)/C1=C(\CCC=C(C)C)C(=O)NOC(C)(C)C | 84.3 | – | – | –
28 | CC(=O)O[C@H]1C[C@@]2(C)[C@@H](C[C@@H](O)[C@H]3[C@@]4(C)CC[C@@H](OC(=O)c5ccccc5C(=O)n5ccnc5)[C@@H](C)[C@@H]4CC[C@@]32C)/C1=C(\CCC=C(C)C)C(=O)OCc1ccccc1 | 59.5 | – | – | –
29 | CC(=O)O[C@H]1C[C@@]2(C)[C@@H](C[C@@H](O)[C@H]3[C@@]4(C)CC[C@@H](O)[C@@H](C)[C@@H]4CC[C@@]32C)/C1=C(\CCC=C(C)C)C(=O)NOc1ccc([N+](=O)[O-])cc1[N+](=O)[O-] | 15.2 | – | – | –
30 | CC(=O)O[C@H]1C[C@@]2(C)[C@@H](C[C@@H](O)[C@H]3[C@@]4(C)CC[C@@H](O)[C@@H](C)[C@@H]4CC[C@@]32C)/C1=C(\CCC=C(C)C)C(=O)NOC(=O)c1ccc([N+](=O)[O-])cc1 | 70.8 | – | – | –
31 | CC(=O)O[C@H]1C[C@@]2(C)[C@@H](C[C@@H](O)[C@H]3[C@@]4(C)CC[C@@H](O)[C@@H](C)[C@@H]4CC[C@@]32C)/C1=C(\CCC=C(C)C)C(=O)O [FUSIDIC ACID] | 91.3 | 2.18 | 14.9 | –
32 | CONC(=O)c1ccccc1C(=O)O[C@@H]1CC[C@@]2(C)[C@@H](CC[C@@]3(C)[C@H]2[C@H](O)C[C@H]2/C(=C(\CCC=C(C)C)C(=O)OCc4ccccc4)[C@@H](OC(C)=O)C[C@@]23C)[C@@H]1C | 106 | 17.3 | 27 | –
33 | CC(=O)O[C@H]1C[C@@]2(C)[C@@H](C[C@@H](O)[C@H]3[C@@]4(C)CC[C@@H](O)[C@@H](C)[C@@H]4CC[C@@]32C)/C1=C(\CCC=C(C)C)C(=O)NOC1CCCCO1 (some centres undefined) | 2.83 | – | – | –
